{"source": "patent US20230009323A1", "about": "“COMPOUNDS AND METHODS FOR THE TREATMENT OF CRYPTOSPORIDIOSIS” (The Broad Institute, Inc., priority 2019, published 2023)", "key": {"[1]": {"tested_on": "transgenic C. parvum (L482+V482 mixed or wt L482)", "assay": "IFN-γ knockout mice infected with transgenic C. parvum, fecal luminescence", "assay_type": "in vivo, C57BL/6 IFN-γ knockout mice", "details": "10 mg/kg for five days (days 4-8 post-infection); day 7", "source_text": "All mouse studies described in this section were approved by the Institutional Animal Care and Use Committee of the University of Georgia and University of Pennsylvania. Cryptosporidium parvum IOWA-II oocysts were purchased from Bunch Grass Farms, Deary, Id., USA. Oocysts were excysted and electroporated with Cas9/guide plasmid and repair DNA template using Lonza Nucleofector 4D device and previously optimized protocols described in Vinayak, S. et al. Nature 523, 477-480, doi:10.1038/nature14651 (2015) and Pawlowic, et al. Curr Protoc Microbiol 46, 20B 22 21-20B 22 32, doi:10.1002/cpmc.33 (2017), each hereby incorporated by reference in their entirety. C57BL/6 IFN-γ knockout mice (Jackson Laboratory) aged 4-6 weeks (n=5) were infected with transfected sporozoites suspended in PBS using surgery described previously or an oral gavage procedure. The oral gavage procedure involved buffering of the acidic stomach with 8% sodium bicarbonate before delivery of sporozoites.\nFecal samples were collected from cages and luminescence measurements were performed as described in Manjunatha, U. H. et al. Nature 546, 376-380, doi:10.1038/nature22337 (2017) and Vinayak, S. et al. Nature 523, 477-480, doi:10.1038/nature14651 (2015), each hereby incorporated by reference in their entirety. […] During passaging, mice were monitored for weight loss, fur ruffling, hunched posture, and inactivity. […]"}, "C. parvum (Iowa isolate)": {"tested_on": "C. parvum (Iowa isolate)", "assay": "EdU incorporation (DNA synthesis) assay of intracellular development in HCT-8 cells", "assay_type": "cell-based, Cryptosporidium parvum", "details": "2×EC90; FIG. 6A legend says EC90", "method": "DNA synthesis was assayed during intracellular development of C. parvum (Iowa isolate) within HCT-8 cells by measuring incorporation of the thymidine analogue 5-ethynyl-2′-deoxyuridine (EdU) using epifluorescence microscopy as described in Jumani, R. S. et al. Nat Commun 10, 1862, doi:10.1038/s41467-019-09880-w (2019), hereby incorporated by reference in its entirety. HCT-8 cells were grown to >90% confluence in 96-well plates coated with 50 μg mL^−1 fibronectin (BD Pharmingen, catalog #354008), and then infected using the method described above with ˜5.5×10^4 C. parvum Iowa isolate oocysts per well. Compound 11 was added at 2×EC90 3 hours after infection, followed by incubation for 6 hours and then addition of […] EdU. After incubation for two more hours, the monolayers were washed and fixed with 4% formaldehyde in saline. Cells were then permeabilized, and stained with FITC-Vicia villosa lectin, Hoechst 33258, and for incorporation of EdU using the Click-iT assay kit (Thermo Fisher Scientific). Images were acquired by focusing on the parasite focal plane on top of the host cell monolayer using a 40× objective (0.7 NA), and parasitophorous vacuoles and EdU positive vacuoles were quantified using NIH ImageJ software."}, "HepG2 cytotoxicity": {"assay": "HepG2 cytotoxicity", "assay_type": "cell-based", "details": "human, HepG2 cells"}, "HEK293T cytotoxicity": {"assay": "HEK293T cytotoxicity", "assay_type": "cell-based", "details": "human, HEK293T cells"}, "[2]": {"biological_target": "recombinant C. hominis PheRS (ChPheRS) (Cryptosporidium hominis, UniProt A0A0S4TD72)", "assay": "C. hominis PheRS aminoacylation assay", "assay_type": "biochemical", "details": "aminoacylation activity", "method": "The protein sequences of C. hominis PheRS alpha (Chro.30378) and beta subunits (Chro.80385) were retrieved from the Crypto DB (https://cryptodb.org/cryptodb/). Genes were inserted to pETM 11 and pETM 20 vectors and both alpha and beta subunits were co-expressed in E. coli B834 competent cells. Recombinant proteins were expressed by growing cells at 37° C. to OD600 of 0.6-0.8, followed by induction with 0.6 mM isopropyl β-d-1-thiogalactopyranoside (IPTG). The cells were later harvested by centrifugation at 5,000×g and cell pellet suspended in a buffer containing 50 mM Tris-HCl (pH 8.8), 200 mM NaCl, 4 mM [3-mercaptoethanol, 10% (v/v) glycerol, 0.1 mg ml-1 lysozyme and 1 mM phenylmethylsulfonyl fluoride (PMSF)]. The bacterial cells were lysed using sonication and cleared by centrifugation at 20,000×g for 45 mins. […]"}}}
{"smiles": "COc1ccc(NC(=O)N2CCCCN3[C@H](CN(C)C)[C@H](c4ccc(C#Cc5ccccc5)cc4)[C@@H]3C2)cc1", "note": "[Compound 11, (8R,9S,10S)-10-((dimethylamino)methyl)-N-(4-methoxyphenyl)-9-(4-(phenylethynyl)phenyl)-1,6-diazabicyclo[6.2.0]decane-6-carboxamide]", "values": [{"measurement": "fecal luciferase activity (parasite shedding)", "setting": "[1]", "result": "decrease in luciferase activity"}, {"measurement": "intracellular parasite development (EdU incorporation)", "setting": "C. parvum (Iowa isolate)", "result": "strongly inhibited intracellular parasite development"}, {"measurement": "CC50", "setting": "HepG2 cytotoxicity", "result": 5, "unit": "µM"}, {"measurement": "CC50", "setting": "HEK293T cytotoxicity", "result": 5, "unit": "µM"}, {"measurement": "IC50", "setting": "[2]", "result": 0.06, "unit": "µM"}]}
